Laboratory results taken from PMC6232652 (Computational and Structural Biotechnology Journal, 2018).

Assays:
A549 cells [1] = test: Acridine orange; format: cell-based; conditions: 12 h, 4.20 μM 14d, 5.38 μM 19b
A549 cells [2] = test: Cell cycle analysis by flow cytometry; conditions: 12 h, 4.20 μM 14d, 5.38 μM 19b; for Freq Sub-G1: control 0.07; for Freq G2 (percentage of cells in G2/M phase): control 18.21; for Freq S: control 32.62; for Freq G1: control 48.59
A549 cells [3] = test: MTT cytotoxicity assay, A549; format: cell-based; conditions: Homo sapiens, A549, 72 h, read-out: IC50 A549, MTT, 72 h, mean ± SD
HepG2 cells = test: MTT cytotoxicity assay, HepG2; format: cell-based; conditions: Homo sapiens, HepG2, 72 h, read-out: IC50 HepG2, MTT, 72 h, mean ± SD
MCF-7 cells = test: MTT cytotoxicity assay, MCF-7; format: cell-based; conditions: Homo sapiens, MCF7, 72 h, read-out: IC50 MCF-7, MTT, 72 h, mean ± SD
EGFR = conditions: read-out: IC50 (EGFR); previous investigation; cited from earlier work
[4] = previous investigation; cited from earlier work

CN(C)CCn1cccc1/C=N/NC(=O)Nc1cc2c(Nc3ccc(F)c(Cl)c3)ncnc2cc1O[C@H]1CCOC1 [19b, (S,E)-N-(4-((3-chloro-4-fluorophenyl)amino)-7-((tetrahydrofuran-3-yl)oxy)quinazolin-6-yl)-2-((1-(2-(dimethylamino)ethyl)-1H-pyrrol-2-yl)methylene)hydrazine carboxamide]
Morphologic changes of A549 cells (AO staining), apoptosis (A549 cells [1]): can induce A549 cell apoptosis
Freq Sub-G1 (A549 cells [2]): 0.05%
Freq G2 (percentage of cells in G2/M phase) (A549 cells [2]): 22.31%
Freq S (A549 cells [2]): 43.84%
Freq G1 (A549 cells [2]): 33.23%

CCc1ccc(/C=N/NC(=O)Nc2cc3c(Nc4ccc(F)c(Cl)c4)ncnc3cc2OC)s1 [11d, (E)-N-(4-((3-chloro-4-fluorophenyl)amino)-7-methoxyquinazolin-6-yl)-2-((5-ethylthiophen-2-yl)methylene)hydrazine carboxamide]
IC50 (A549 cells [3]): 35.3 ± 0.42 µM
IC50 (HepG2 cells): 35.2 ± 1.08 µM

CN(C)C/C=C/C(=O)Nc1cc2c(Nc3ccc(F)c(Cl)c3)ncnc2cc1O[C@H]1CCOC1 [Afatinib, reference compound]
Freq Sub-G1 (A549 cells [2]): 0.03%
Freq G2 (percentage of cells in G2/M phase) (A549 cells [2]): 47.45%
Freq S (A549 cells [2]): 12.92%
Freq G1 (A549 cells [2]): 39.41%

Cc1ccc(/C=N/NC(=O)Nc2cc3c(Nc4ccc(F)c(Cl)c4)ncnc3cc2O[C@H]2CCOC2)o1 [10b, (S,E)-N-(4-((3-Chloro-4-fluorophenyl)amino)-7-((tetrahydrofuran-3-Yl)Oxy)quinazolin-6-Yl)-2-((5-methylfuran-2-Yl)methylene)hydrazine carboxamide]
IC50 (A549 cells [3]): 28.2 ± 1.34 µM
IC50 (HepG2 cells): 33.2 ± 1.46 µM
IC50 (MCF-7 cells): 34.8 ± 1.01 µM

COc1cc2ncnc(Nc3ccc(F)c(Cl)c3)c2cc1NC(=O)N/N=C/c1ccc(C)o1 [11b, (E)-N-(4-((3-chloro-4-fluorophenyl)amino)-7-methoxyquinazolin-6-yl)-2-((5-methylfuran-2-yl)methylene)hydrazine carboxamide]
IC50 (A549 cells [3]): 28.2 ± 1.34 µM
IC50 (HepG2 cells): 30.2 ± 1.16 µM
IC50 (MCF-7 cells): 35.2 ± 81 µM

COc1cc2ncnc(Nc3ccc(F)c(Cl)c3)c2cc1NC(=O)N/N=C/c1ccco1 [11a, (E)-N-(4-((3-chloro-4-fluorophenyl)amino)-7-methoxyquinazolin-6-yl)-2-(furan-2-ylmethylene)hydrazine carboxamide]
IC50 (A549 cells [3]): 26.2 ± 1.23 µM
IC50 (HepG2 cells): 29.7 ± 1.86 µM

O=C(N/N=C/c1ccc[nH]1)Nc1cc2c(Nc3ccc(F)c(Cl)c3)ncnc2cc1O[C@H]1CCOC1 [10e, (S,E)-2-((1H-pyrrol-2-Yl)methylene)-N-(4-((3-chloro-4-fluorophenyl)amino)-7-((tetrahydrofuran-3-Yl)oxy)quinazolin-6-Yl)hydrazine carboxamide]
IC50 (A549 cells [3]): 2.41 ± 0.32 µM
IC50 (HepG2 cells): 0.59 ± 0.02 µM
IC50 (MCF-7 cells): 1.21 ± 0.19 µM

O=C(N/N=C/c1ccco1)Nc1cc2c(Nc3ccc(F)c(Cl)c3)ncnc2cc1O[C@H]1CCOC1 [10a, (S,E)-N-(4-((3-chloro-4-fluorophenyl)amino)-7-((tetrahydrofuran-3-yl)oxy)quinazolin-6-yl)-2-(furan-2-ylmethylene)hydrazine carboxamide]
IC50 (HepG2 cells): 35.2 ± 1.53 µM
IC50 (MCF-7 cells): 33.4 ± 0.97 µM

COc1cc2ncnc(Nc3ccc(F)c(Cl)c3)c2cc1NC(=O)N/N=C/c1ccc(C)s1 [11c, (E)-N-(4-((3-chloro-4-fluorophenyl)amino)-7-methoxyquinazolin-6-yl)-2-((5-methylthiophen-2-yl)methylene)hydrazine carboxamide]
IC50 (A549 cells [3]): 29.3 ± 0.36 µM
IC50 (HepG2 cells): 27.4 ± 1.03 µM
IC50 (MCF-7 cells): 28.1 ± 1.13 µM

Cc1ccc(/C=N/NC(=O)Nc2cc3c(Nc4ccc(F)c(Cl)c4)ncnc3cc2O[C@H]2CCOC2)s1 [10c, (S,E)-N-(4-((3-chloro-4-fluorophenyl)amino)-7-((tetrahydrofuran-3-yl)oxy)quinazolin-6-yl)-2-((5-methylthiophen-2-yl)methylene)hydrazine carboxamide]
IC50 (A549 cells [3]): 28.4 ± 0.56 µM
IC50 (HepG2 cells): 29.2 ± 1.43 µM
IC50 (MCF-7 cells): 26.1 ± 1.33 µM

O=C(N/N=C/CN1CCCCC1)Nc1cc2c(Nc3ccc(F)c(Cl)c3)ncnc2cc1O[C@H]1CCOC1 [14d, (S,E)-N-(4-((3-chloro-4-fluorophenyl)amino)-7-((tetrahydrofuran-3-yl)oxy)quinazolin-6-yl)-2-(2-(piperidin-1-yl)ethylidene)hydrazine carboxamide]
Morphologic changes of A549 cells (AO staining), apoptosis (A549 cells [1]): can induce A549 cell apoptosis
Freq Sub-G1 (A549 cells [2]): 0.06%
Freq G2 (percentage of cells in G2/M phase) (A549 cells [2]): 23.62%
Freq S (A549 cells [2]): 48.44%
Freq G1 (A549 cells [2]): 27.08%

O=C(N/N=C/c1ccc(O)cc1)Nc1cc2c(Nc3ccc(F)c(Cl)c3)ncnc2cc1O[C@H]1CCOC1 [BMC201725-9o, (S,E)-N-(4-((3-chloro-4-fluorophenyl)amino)-7-((tetrahydrofuran-3-yl)oxy)quinazolin-6-yl)-2-(4-hydroxybenzylidene)hydrazine carboxamide]
IC50 (EGFR): 0.056 µM
solubility [4]: unsatisfactory solubility

CCc1ccc(/C=N/NC(=O)Nc2cc3c(Nc4ccc(F)c(Cl)c4)ncnc3cc2O[C@H]2CCOC2)s1 [10d, (S,E)-N-(4-((3-chloro-4-fluorophenyl)amino)-7-((tetrahydrofuran-3-Yl)oxy)quinazolin-6-Yl)-2-((5-ethylthiophen-2-Yl)methylene)hydrazine carboxamide]
IC50 (A549 cells [3]): 34.23 ± 0.31 µM
IC50 (HepG2 cells): 36.2 ± 1.78 µM
